The source of these data is ChEMBL document CHEMBL4613253, “Effective Application of Metabolite Profiling in Drug Design and Discovery” (J Med Chem, 2020).

Data set [1] is described as follows: Half life in rat liver microsomes at 1 uM measured up to 60 mins by LC-MS/MS analysis. It counts as ADME, Microsome.
Data set [2] can be described thus: Half life in dog liver microsomes at 1 uM measured up to 60 mins by LC-MS/MS analysis. The data set is classed as ADME, Canis lupus familiaris, Microsome.
Data set [3] is described as follows: Half life in human liver microsomes at 1 uM measured up to 60 mins by LC-MS/MS analysis. It counts as ADME, Microsome.
Data set [4] in a line: Plasma clearance in Wistar-Han rat at 1 mg/kg, iv measured up to 24 hrs by LC-MS/MS analysis. The data set is classed as ADME, organism-based.
Data set [5] in a line: Plasma clearance in Beagle dog at 1 mg/kg, iv measured up to 24 hrs by LC-MS/MS analysis. The data set is classed as ADME, organism-based, Canis lupus familiaris.
Data set [6] is described as follows: Half life in human plasma at 1 uM incubated for 0 to 120 mins by LC-MS/MS method. The data set is classed as ADME, cell-free.
The nature of data set [7]: Half life in dog plasma at 1 uM incubated for 0 to 120 mins by LC-MS/MS method. It counts as ADME, cell-free, Canis lupus familiaris.
Data set [8] in a line: Half life in monkey plasma at 1 uM incubated for 0 to 120 mins by LC-MS/MS method. It counts as ADME, cell-free, Macaca mulatta. Particulars: rhesus monkey.
The target in data set [9] is cGMP-dependent 3',5'-cyclic phosphodiesterase (Homo sapiens, UniProt O00408). Kind of data set: Inhibition of PDE2 (unknown origin).
Data set [10] can be described thus: Half life in guinea pig plasma at 1 uM incubated for 0 to 120 mins by LC-MS/MS method. The data set is classed as ADME, cell-free, Cavia porcellus.
Data set [11] in a line: Half life in rat plasma at 1 uM incubated for 0 to 120 mins by LC-MS/MS method. The data set is classed as ADME, cell-free.
Data set [12] concerns the target T1, Glucose-dependent insulinotropic receptor (Homo sapiens, UniProt Q8TDV5).
T1 sequence (Q8TDV5 whole entry): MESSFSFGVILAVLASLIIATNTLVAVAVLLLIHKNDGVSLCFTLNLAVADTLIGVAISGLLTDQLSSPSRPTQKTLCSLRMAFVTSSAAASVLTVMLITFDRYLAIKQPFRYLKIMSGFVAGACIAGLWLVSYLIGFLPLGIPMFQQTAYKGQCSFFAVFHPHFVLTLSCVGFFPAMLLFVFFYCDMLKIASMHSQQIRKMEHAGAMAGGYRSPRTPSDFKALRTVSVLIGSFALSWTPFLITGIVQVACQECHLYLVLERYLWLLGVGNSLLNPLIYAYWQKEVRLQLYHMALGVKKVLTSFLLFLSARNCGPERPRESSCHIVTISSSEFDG
Kind of data set: Agonist activity at human GPR119 expressed in HEK293 cells preincubated for 30 mins followed by d2 cAMP addition and measured after 60 mins by HTRF assay. The data set is classed as functional, cell-based.

The nature of data set [13]: Protein binding in po or iv dosed rat plasma assessed as free fraction. It counts as ADME, organism-based.
A short description of data set [14]: Plasma clearance in po or iv dosed rat plasma. It counts as ADME, organism-based.
Data set [15] is described as follows: Volume of distribution at steady state in po or iv dosed rat. It counts as ADME, organism-based. The settings on record: in vivo, read-out: Vdss.
Data set [16] is described as follows: Elimination half life in po or iv dosed rat. It counts as ADME, organism-based. The settings on record: in vivo, read-out: beta t1/2 (converted).
Data set [17] in a line: Oral bioavailability in rat. It counts as ADME, organism-based. The settings on record: in vivo.
Data set [18] is described as follows: Drug metabolism in human liver microsomes assessed as peak area for GSH-EE-quinone conjugate formation at 10 uM measured after 60 mins in presence of NADPH by LC-MS/MS analysis. It counts as ADME, Microsome. Particulars: 1 h.
A short description of data set [19]: AUC(0 to infinity) in human carrying CYP3A5*3/*3 allele at 300 mg, po measured up to 32 hrs. It counts as ADME, organism-based. More on the design: dose 300 mg, route oral, time infinity. The settings on record: in vivo.
Data set [20] can be described thus: AUC(0 to infinity) in human carrying CYP3A5*1/*3 allele at 300 mg, po measured up to 32 hrs. The data set is classed as ADME, organism-based. On the set-up: dose 300 mg, route oral, time infinity. Particulars: in vivo.
Data set [21] is described as follows: AUC(0 to infinity) in human carrying CYP3A5*1/*1 allele at 300 mg, po measured up to 32 hrs. The data set is classed as ADME, organism-based. On the set-up: dose 300 mg, route oral, time infinity. The settings on record: in vivo.

The structures appear in SMILES notation.

Chain of cGMP-dependent 3',5'-cyclic phosphodiesterase (O00408 whole entry): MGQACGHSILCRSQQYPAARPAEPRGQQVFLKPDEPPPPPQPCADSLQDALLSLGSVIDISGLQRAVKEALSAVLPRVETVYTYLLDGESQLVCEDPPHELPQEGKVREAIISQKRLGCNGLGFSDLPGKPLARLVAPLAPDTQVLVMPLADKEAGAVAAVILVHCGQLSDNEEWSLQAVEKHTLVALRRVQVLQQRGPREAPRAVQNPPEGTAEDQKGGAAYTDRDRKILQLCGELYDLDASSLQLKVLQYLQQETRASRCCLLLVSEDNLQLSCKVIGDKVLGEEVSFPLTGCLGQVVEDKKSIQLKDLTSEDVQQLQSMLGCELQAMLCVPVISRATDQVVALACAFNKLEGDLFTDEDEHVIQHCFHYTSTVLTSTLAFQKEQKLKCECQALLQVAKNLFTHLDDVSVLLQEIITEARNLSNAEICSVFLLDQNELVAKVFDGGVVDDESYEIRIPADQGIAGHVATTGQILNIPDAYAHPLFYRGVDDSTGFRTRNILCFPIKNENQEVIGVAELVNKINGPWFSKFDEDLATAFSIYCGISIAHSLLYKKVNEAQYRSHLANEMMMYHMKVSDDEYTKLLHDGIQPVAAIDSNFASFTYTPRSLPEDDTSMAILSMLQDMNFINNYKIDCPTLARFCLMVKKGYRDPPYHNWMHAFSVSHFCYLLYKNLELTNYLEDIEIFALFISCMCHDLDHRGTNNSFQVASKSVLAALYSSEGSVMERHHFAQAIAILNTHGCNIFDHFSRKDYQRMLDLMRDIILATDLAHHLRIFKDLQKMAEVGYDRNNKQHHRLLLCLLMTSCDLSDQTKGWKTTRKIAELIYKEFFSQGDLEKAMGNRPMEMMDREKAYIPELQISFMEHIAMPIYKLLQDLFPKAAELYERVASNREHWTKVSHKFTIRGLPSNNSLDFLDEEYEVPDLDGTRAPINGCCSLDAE

With `COc1ccc(-c2cc(=O)[nH]c(=S)n2CCO)c(OC)c1`, the results for the half-life at 1 µM in data set [1], in [2] and in [3] were 8.6 min, 0.187 h and greater than 2 h, respectively. Moreover, the clearance in data set [4] is 73 mL/min/kg; in [5], 12 mL/min/kg.
With `CC(C)OC(=O)N1CCN(c2ncc(-c3ccc4nccnc4c3)cc2C#N)CC1`, the half-life at 1 µM in data set [6], in data set [7] and in [8] was greater than 6.17 h each time.
`CCc1ccc(-c2c(-c3nn(C)c4ncnc(N5CC(O)C5)c34)cnn2C)cc1`: the IC50 in [9] was found to be 10 nM.
Still for that read-out and setting: next, `CC(O)c1ccc(-c2c(-c3nn(C)c4ncnc(N5CCC5)c34)cnn2C)cc1` (centres undefined): 42 nM.
On to `Cc1cc(-c2ccc(N3CCC(c4nc(C(C)C)no4)CC3)nc2)c(C#N)cc1C#N`, for which the half-life at 1 µM in data set [6], in [10] and in data set [11] was greater than 6.17 h each time. Besides, the EC50 in [12] was determined as 1.7 nM. In addition, the unbound share (fraction unbound) in data set [13] was 0.03. This compound also gave a clearance in data set [14] of 13.4 mL/min/kg. In addition, in data set [15], the Vd worked out at 3 L/kg. The half-life in data set [16] is 2.6 h. In data set [17], this compound showed a bioavailability of 70%.
Turning to `C[C@H](Cc1ccc(F)c(F)c1)n1c(-c2ncccc2O)nc2ccnc(C(F)(F)F)c2c1=O`, in [18], the Activity worked out at 3000.
Still for that read-out and setting: next, `C[C@H](Cc1ccccc1)n1c(-c2ccccc2O)nc2ccnc(C(F)(F)F)c2c1=O`: 166810.
Turning to `Cc1nnc(C(C)C)n1[C@@H]1C[C@H]2CC[C@@H](C1)N2CC[C@H](NC(=O)C1CCC(F)(F)CC1)c1ccccc1` [MARAVIROC], the AUC(0-inf) in [19] was determined as 2100 ng·h/mL; in data set [20] it was 1760 ng·h/mL; in data set [21] it was 1240 ng·h/mL.
